Like-named read-outs stand apart in the source and are kept apart here.
Key:
ASBT = target: T1, ASBT (Homo sapiens, UniProt Q12908); experiment: Transport inhibition in ASBT-HEK293 cells; format: cell-based; conditions: triterpenoid inhibitors, 10 min after 5 min preincubation
T1 construct: The full-length open reading frames of NTCP, ASBT, and SOAT were cloned; expressed in transfected cells; host or cells: Flp-In T-REX HEK293 (ASBT-HEK293), tetracycline-induced
T1 sequence (Q12908 1-348): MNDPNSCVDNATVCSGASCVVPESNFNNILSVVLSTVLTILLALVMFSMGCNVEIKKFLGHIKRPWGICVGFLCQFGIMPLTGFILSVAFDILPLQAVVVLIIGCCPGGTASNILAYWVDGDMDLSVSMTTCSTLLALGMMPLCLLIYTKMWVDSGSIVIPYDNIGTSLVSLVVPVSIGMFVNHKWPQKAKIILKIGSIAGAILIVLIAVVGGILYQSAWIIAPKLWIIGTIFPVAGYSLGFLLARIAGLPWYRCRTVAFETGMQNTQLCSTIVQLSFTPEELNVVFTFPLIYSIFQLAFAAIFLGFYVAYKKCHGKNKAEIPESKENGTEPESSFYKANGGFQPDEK
Description: (§1) Cells were washed three times with PBS and were preincubated with the respective inhibitor in sodium transport buffer for 5 min at 37°C. Uptake was initiated by adding the respective radiolabeled substrate to the well and incubating for a fixed time as indicated in the figures at 37°C. Transport was terminated by removing the transport buffer and washing five-times with ice-cold PBS. Cell monolayers were lysed in 1 N NaOH with 0.1% SDS and the cell-associated radioactivity and protein content was determined as described above. For uptake inhibition with the myr-preS1 peptide the sodium transport buffer contained additionally MEM-amino acid solution (ThermoFisher) at 1:50 dilution.
(§2) All transport or inhibition graphs were generated with GraphPad Prism 6.0 (GraphPad). Determination of IC50 values was done by nonlinear regression analysis using the equation log (inhibitor) vs. response settings. If not stated otherwise in the legends all data represent means ± SD of at least triplicate determinations of representative experiments.
(§3) FIGURE 3 Inhibition of NTCP, ASBT, and SOAT with substrate inhibitors. Transport of [^3H]TC, [^3H]TLC, and [^3H]DHEAS was analyzed in NTCP-HEK293, ASBT-HEK293, and SOAT-HEK293 cells in the presence of the substrate inhibitors TC, TLC, and DHEAS at increasing concentrations ranging from 100 nM till 1000 µM. After 5 min of preincubation with the respective inhibitory compound, 200 nM [^3H]TLC, [^3H]TC or [^3H]DHEAS were added for additional 1 min and the cell lysates were analyzed by liquid scintillation counting. Unspecific uptake of HEK293-FlpIn cells was set to 0%. Carrier-specific uptake without inhibitor was set to 100%.
(§4) Transport of [^3H]TC, [^3H]TLC, and [^3H]DHEAS was analyzed in NTCP-HEK293, ASBT-HEK293, and SOAT-HEK293 cells in the presence of different supposed non-substrate triterpenoid inhibitors as indicated at increasing concentrations ranging from 100 nM till 1000 µM. After 5 min of preincubation with the respective inhibitory compound, 1 µM [^3H]TLC, [^3H]TC or [^3H]DHEAS were added for additional 10 min at 37°C and the cell lysates were analyzed by liquid scintillation counting. Experiments performed without inhibitor were set to 100%. Means of negative controls were subtracted to calculate net transport rates (expressed as percentage of control). Data represent means ± SD of quadruplicate determinations of representative experiments.

SOAT [1] = target: T2, SOAT (Homo sapiens, UniProt Q3KNW5); experiment: Transport inhibition in SOAT-HEK293 cells; format: cell-based; conditions: triterpenoid inhibitors, 10 min after 5 min preincubation
T2 construct: The full-length open reading frames of NTCP, ASBT, and SOAT were cloned; expressed in transfected cells; host or cells: Flp-In T-REX HEK293 (SOAT-HEK293), tetracycline-induced
T2 sequence (Q3KNW5 1-377): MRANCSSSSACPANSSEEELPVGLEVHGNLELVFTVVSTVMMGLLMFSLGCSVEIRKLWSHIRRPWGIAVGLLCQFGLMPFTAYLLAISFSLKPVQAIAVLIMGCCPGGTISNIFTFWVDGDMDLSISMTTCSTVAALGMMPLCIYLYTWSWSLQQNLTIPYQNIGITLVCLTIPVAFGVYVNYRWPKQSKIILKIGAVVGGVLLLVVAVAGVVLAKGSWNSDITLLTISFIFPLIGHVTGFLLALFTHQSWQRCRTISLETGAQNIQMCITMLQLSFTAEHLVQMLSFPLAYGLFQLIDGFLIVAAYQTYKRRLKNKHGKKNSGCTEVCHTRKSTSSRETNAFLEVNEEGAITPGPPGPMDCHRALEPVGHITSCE
Description: as §1, §2, §3, §4

NTCP [2] = target: T3, NTCP (Homo sapiens, UniProt Q14973); experiment: Transport inhibition in NTCP-HEK293 cells
T3 sequence (Q14973 1-349): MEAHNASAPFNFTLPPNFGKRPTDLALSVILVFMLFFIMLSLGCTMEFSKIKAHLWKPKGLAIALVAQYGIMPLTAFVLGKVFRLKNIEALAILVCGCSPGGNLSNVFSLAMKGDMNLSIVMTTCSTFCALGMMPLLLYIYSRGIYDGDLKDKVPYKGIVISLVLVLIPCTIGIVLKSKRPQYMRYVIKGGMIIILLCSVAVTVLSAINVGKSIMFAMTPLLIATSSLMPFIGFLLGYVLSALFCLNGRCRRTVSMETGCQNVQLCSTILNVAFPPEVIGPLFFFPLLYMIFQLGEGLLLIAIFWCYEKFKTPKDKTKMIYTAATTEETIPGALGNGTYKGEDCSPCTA

HDV = conditions: in vitro; ref Kirstgen et al., 2020; cited from earlier work
SOAT [3] = target: T2, SOAT; experiment: Substrate screening: sodium-dependent uptake of radiolabeled compounds in SOAT-HEK293 cells; format: cell-based; conditions: radiolabeled steroid compounds 200 nM, 10 min, SOAT-HEK293, vs sodium-free control
Description: (§5) Stably SLC10 transporter transfected NTCP-HEK293, ASBT-HEK293, SOAT-HEK293 cells and the HEK293-FlpIn maternal cell line were seeded on 24-well plates (if not stated otherwise for individual assays). Well plates were coated with poly-D-lysine prior to seeding of 125,000 cells per well. Cells were grown with 1 ml of standard medium per well with or without tetracycline ([…]) for 72 h to induce carrier expression before respective assays were started. HEK293-FlpIn cells were cultivated with standard medium and served as control.
(§6) Uptake experiments were initiated by replacing the preincubation buffer by 500 μL transport buffer containing the radiolabeled test compound and were performed at 37°C. Transport was terminated by removing the transport buffer and washing five-times with ice-cold PBS. Cell monolayers were lysed in 1 N NaOH with 0.1% SDS and the cell-associated radioactivity was determined by liquid scintillation counting.
(§7) FIGURE 1 Comparative substrate screening for bile acids and sulfated steroids in NTCP-, ASBT-, and SOAT-HEK293 cells. Transport assays were performed with the indicated substrates in NTCP-HEK293, ABST-HEK293, SOAT-HEK293, and HEK293-FlpIn cells. Cells were washed and equilibrated with Na^+-containing transport buffer (filled bars) or with Na^+-free transport buffer (open bars) at 37°C. For uptake, cells were incubated with radiolabeled steroid compounds at a final concentration of 200 nM in Na^+-containing or Na^+-free transport buffer for 10 min. Radiolabeled bile acids were used at 1 µM concentrations and transport was analyzed over 30 min. HEK293-FlpIn cells served as additional controls. After the indicated time intervals, cells were washed with ice-cold PBS, lysed and subjected to liquid scintillation counting. […] 3-OH, trihydroxylated BAs; 2-OH, dihydroxylated BAs; 1-OH, monohydroxylated BAs.

SOAT [4] = target: T2, SOAT; parameters: method as in Geyer et al. (2007); conditions: uptake via SOAT, same SOAT-HEK293 cell line; ref Geyer et al. (2007); cited from earlier work
NTCP [5] = target: T3, NTCP; experiment: Substrate screening: sodium-dependent uptake of radiolabeled compounds in NTCP-HEK293 cells; format: cell-based; parameters: The full-length open reading frames of NTCP, ASBT, and SOAT were cloned; expressed in transfected cells; host or cells: Flp-In T-REX HEK293 (NTCP-HEK293), tetracycline-induced; conditions: radiolabeled steroid compounds 200 nM, 10 min, NTCP-HEK293, vs sodium-free control
Description: as §5, §6, §7

NTCP [6] = target: T3, NTCP; experiment: Transport kinetics (concentration-dependent uptake) in NTCP-HEK293 cells; format: cell-based; parameters: The full-length open reading frames of NTCP, ASBT, and SOAT were cloned; expressed in transfected cells; host or cells: Flp-In T-REX HEK293 (NTCP-HEK293), tetracycline-induced; conditions: uptake via NTCP, 1 min, 37°C
Description: as §6
FIGURE 2 NTCP, ASBT, and SOAT transport kinetics. Concentration-dependent uptake was analyzed in NTCP-HEK293, ASBT-HEK293, and SOAT-HEK293 cells for the indicated substrates at increasing substrate concentrations. Stably transfected HEK293 cells were pretreated with 1 μg/ml tetracycline to induce carrier expression. HEK293-FlpIn cells were used as control. Uptake was analyzed for 1 min at 37°C. Afterward, the medium was removed and each cell monolayer was washed and processed to determine the protein content and cell-associated radioactivity. Specific uptake was calculated by subtracting non-specific uptake of the HEK293-FlpIn control cells (open squares) from uptake into carrier-overexpressing HEK293 cells (filled squares) and is shown by broken lines. The values represent means ± SD of duplicate experiments, each with triplicate determinations (n = 6).

[7] = 1 µM [3H]TC, read-out: ASBT IC50, substrate [3H]TC
[8] = 1 µM [3H]TLC, read-out: ASBT IC50, substrate [3H]TLC
[9] = 1 µM [3H]DHEAS, read-out: SOAT IC50, substrate [3H]DHEAS
[10] = 1 µM [3H]TLC, read-out: SOAT IC50, substrate [3H]TLC
[11] = NTCP IC50, substrate [3H]TC, triterpenoid inhibitors, 1 µM [3H]TC, 10 min after 5 min preincubation
[12] = NTCP IC50, substrate [3H]TLC, triterpenoid inhibitors, 1 µM [3H]TLC, 10 min after 5 min preincubation

Compound	IC50 (ASBT; [7])	IC50 (ASBT; [8])	IC50 (SOAT [1]; [9])	IC50 (SOAT [1]; [10])	IC50 (NTCP [2]; [11])	IC50 (NTCP [2]; [12])	anti-HDV activity in vitro (HDV)	Transport activity grading SOAT (mean uptake) (SOAT [3])	Apparent K m (SOAT [4])	V max (SOAT [4])	Transport activity grading NTCP (mean uptake) (NTCP [5])	Apparent K m (NTCP [6])	V max (NTCP [6])	further results
C=C(C)[C@@H]1CC[C@]2(CO)CC[C@]3(C)[C@H](CC[C@@H]4[C@@]5(C)CC[C@H](OC(=O)/C=C/c6ccc(O)c(O)c6)C(C)(C)[C@@H]5CC[C@]43C)[C@@H]12 [3-O-Caffeoyl betulin]	499 µM	99.7 µM	301 µM	37.8 µM	129 µM	2.1 µM								IC50 (NTCP [2]; NTCP IC50, substrate [3H]DHEAS, triterpenoid inhibitors, 1 µM [3H]DHEAS, 10 min after 5 min preincubation): 49.1 µM
C=C(C)[C@@H]1CC[C@]2(CO)CC[C@]3(C)[C@H](CC[C@@H]4[C@@]5(C)CC[C@H](O)C(C)(C)[C@@H]5CC[C@]43C)[C@@H]12 [Betulin]														IC50 (ASBT; ASBT IC50, substrate [3H]TC, 1 µM [3H]TC): > 1000 µM; IC50 (ASBT; ASBT IC50, substrate [3H]TLC, 1 µM [3H]TLC): 192 µM; IC50 (SOAT [1]; SOAT IC50, substrate [3H]DHEAS, 1 µM [3H]DHEAS): 912 µM; IC50 (SOAT [1]; SOAT IC50, substrate [3H]TLC, 1 µM [3H]TLC): 50.1 µM
C=C(C)[C@@H]1CC[C@]2(C(=O)O)CC[C@]3(C)[C@H](CC[C@@H]4[C@@]5(C)CC[C@H](O)C(C)(C)[C@@H]5CC[C@]43C)[C@@H]12 [Betulinic acid]	> 1000 µM	193 µM	1.2 µM	9.5 µM			anti-HDV activity							
C[C@]12CC[C@@H]3c4ccc(OS(=O)(=O)O)cc4CC[C@H]3[C@@H]1CCC2=O [E1S, Estrone-3-sulfate]								+ (Mean uptake “+” for values below 10)	12.0 ± 2.3 µM	585 ± 34 pmol/mg protein/min	++ (“++” for values between 10 and 100)	57.6 ± 11.3 µM	2367 ± 170.8 pmol/mg protein/min	
C=C(C)[C@@H]1CC[C@]2(C)CC[C@]3(C)[C@H](CC[C@@H]4[C@@]5(C)CCC(=O)C(C)(C)[C@@H]5CC[C@]43C)[C@@H]12 [Lupenone]	> 1000 µM	> 1000 µM	665 µM	122 µM	240 µM	11.8 µM	anti-HDV activity							IC50 (NTCP [2]; NTCP IC50, substrate [3H]DHEAS): > 1000 µM
Pregnenolone sulfate [PREGS]								+++ (“+++” for values above 100 pmol/mg protein/10 min for sulfated steroid hormones)	11.3 ± 3.0 µM	2168 ± 134 pmol/mg protein/min	+++ (“+++” for values above 100 pmol/mg protein/10 min for sulfated steroid hormones)	8.8 ± 2.1 µM	1036 ± 69.1 pmol/mg protein/min	

Source: paper PMC8165160, “Substrate Specificities and Inhibition Pattern of the Solute Carrier Family 10 Members NTCP, ASBT and SOAT” (Frontiers in Molecular Biosciences, 2021)
